Test results: patent US20220168295A1, “RIMEGEPANT FOR CGRP RELATED DISORDERS” (Biohaven Pharmaceutical Ireland DAC, priority 2018, published 2022)

Test system: subjects with Acute Migraines
Test: Study 302 (BHV3000-302) Phase 3 placebo-controlled trial, rimegepant 75 mg tablet, acute treatment of migraine: efficacy and safety
Assay type: in vivo, human
Method: Clinical Trial—BHV3000-302: Phase 3: Double-Blind, Randomized, Placebo-Controlled, Safety and Efficacy Trial of BHV-3000 (Rimegepant) for the Acute Treatment of Migraine (ClinicalTrials.gov Identifier: NCT03237845) A phase 3 clinical study was conducted with 1503 participants, as follows. The purpose of this study is to compare the efficacy of BHV-3000 (rimegepant) versus placebo in subjects with Acute Migraines • Study Type: Interventional (Clinical Trial) • Actual Enrollment: 1503 participants • Allocation: Randomized • Intervention Model: Parallel Assignment • Intervention Model Description: Double-blind to Sponsor, Investigator and Subject • Masking: Triple (Participant, Care Provider, Investigator) • Masking Description: Double-blind to Sponsor, Investigator and Subject • Primary Purpose: Treatment • Official Title: BHV3000-302: Phase 3: Double-Blind, Randomized, Placebo-Controlled, Safety and Efficacy Trial of BHV-3000 (Rimegepant) for the Acute Treatment of Migraine • Actual Study Start Date: Jul. 26, 2017 • Primary Completion Date: Jan. 25, 2018 • Study Completion Date: Jan. 31, 2018 [table] • 1. Pain Freedom of rimegepant (75 mg tablet) compared with placebo in the acute treatment of migraine will be measured using the number of evaluable subjects that report no pain at 2 hours post-dose. [Time Frame: Two hours post dose] • Pain will be measured on a 4 point Likert scale (0=none, 1=mild, 2=moderate, 3=severe) • 2. Freedom from the most bothersome symptom (MBS) of rimegepant (75 mg tablet) compared with placebo will be measured using the number of evaluable subjects that report the absence of their MBS at 2 hours post-dose. [Time Frame: Two hours post dose] • The MBS (nausea, phonophobia or photophobia) will measured using a binary scale (0=absent, 1=present). • 1. […] [Time Frame: 2 hours −24 hours post-dose] • Sustained Pain Freedom as measured by a 4 point numeric rating scale (None, Mild, Moderate, Severe) • 2. Rimegepant (75 mg tablet) compared to placebo by tabulating the number of subjects that report the absence of photophobia at 2 hours post-dose in the subset of subjects that reported the presence of photophobia at headache baseline. [Time Frame: 2 hours post-dose] • Freedom from Photophobia • 3. Rimegepant (75 mg tablet) compared to placebo by tabulating the number of subjects that report the absence of phonophobia at 2 hours post-dose in the subset of subjects that reported the presence of phonophobia at headache baseline. [Time Frame: 2 hours post-dose] • Freedom from Phonophobia • 4. To measure rimegepant (75 mg tablet) compared to placebo on Pain Relief, at 2 hours post-dose, that report a pain level of moderate or severe at baseline and then report a pain level of none or mild. [Time Frame: 2 hours post-dose] • Pain Relief as measured by a 4 point numeric rating scale (None, Mild, Moderate, Severe) • 5. Freedom from Nausea will by tabulating the number of subjects that report the absence of nausea at 2 hours post-dose in the subset of subjects that reported the presence of nausea at headache baseline. [Time Frame: 2 hours post-dose] • Freedom from Nausea • 6. To measure rimegepant (75 mg tablet) compared to placebo on the probability of requiring rescue medication will be assessed using the number of subjects that take rescue medication within […] administration of study medication (BHV3000 or placebo). [Time Frame: up to 24 hours post-dose] • Requiring Rescue Medication • 7. […] [Time Frame: 2 hours-48 hours post-dose] • Sustained Pain Freedom as measured by a 4 point numeric rating scale (None, Mild, Moderate, Severe) • 8. […] [Time Frame: 2 hours-24 hours post-dose] • Sustained Pain Relief as measured by a 4 point numeric rating scale (None, Mild, Moderate, Severe) • 9. […] [Time Frame: 2 hours-48 hours post-dose] • Sustained Pain Relief as measured by a 4 point numeric rating scale (None, Mild, Moderate, Severe) • 10. […]

Structure (SMILES): N[C@@H]1c2cccnc2[C@H](OC(=O)N2CCC(n3c(=O)[nH]c4ncccc43)CC2)CC[C@H]1c1cccc(F)c1F [Rimegepant, [(5S,6S,9R)-5-amino-6-(2,3-difluorophenyl)-6,7,8,9-tetrahydro-5H-cyclohepta[b]pyridin-9-yl] 4-(2-oxo-3H-imidazo[4,5-b]pyridin-1-yl)piperidine-1-carboxylate]
- SAEs related to the study drug: No SAEs were determined to be related to the study drug
- Transaminase level greater than 3 times ULN, subjects: No subject
- Adverse event urinary tract infection, incidence (8/543): 1.5%
- Adverse event nausea, incidence (10/543): 1.8%
- Serum ALT or AST levels greater than ULN, subjects (13/543): 2.4%
- Proportion of patients achieving normal function at 2 hours (functional disability) versus placebo (P<0.0001): greater proportion
- Serious AEs (SAEs), number of subjects (back pain): 1 subject
